What was measured:
age spots on the face = assay: Reduction of age spots on the face, half-side test, chromameter skin shade ITA°; type: in vivo, human; settings: applied twice daily for six weeks, FIG. 4; for ΔΔITA after 6-week application of the test formulations (reduction of age spots): 40 women, PKEK 0.004%, sodium ascorbyl phosphate 1.5%
Procedure: In order to quantify such age spots, color measurements of the skin are carried out. For this purpose, chromameters are used. The chromameter measures the color values L*, a* and b*. These describe a three-dimensional color space, with the help of which every perceivable color can be described, cf. FIG. 2. The end points are black (L=0) and white (L=100). In order to be able to classify the skin shade, the parameters L* and b* are required. The skin shade ITA° is given in degrees and calculated using the following formula: ITA°=[arctan((L*−50)/b*)]*180/3.14159 By means of the following study, the aim is to investigate whether the tetrapeptide PKEK is able to visibly reduce age spots. The study was carried out as a half-side test. 40 women aged between 30 and 70 years were selected who had visible age spots on the face. They were each given 2 test formulations, one for the right half of the face and the other for the left half of the face. The test formulations had to be applied twice daily over a period of six weeks. [table] Prior to the start of the study and also after 6 weeks, the color of the skin directly on the age spot was measured as well as in the adjoining area. This was performed using a CR 400 chromameter from Minolta. The skin shade ITA° was calculated both for the age spot (ITA°A) and also the adjoining area (ITA°U) and the difference was calculated: ΔITA°=ITA°U−ITA°A The greater ΔITA°, the more visible the age spot.

[1] = test system: melanin concentration in the skin of the forearm; assay: In vivo lightening (2-month study), melanin concentration measured with a Mexameter probe; design: species or system human; settings: 0.005% PKEK formulation, 20 subjects, compared to vehicle, FIG. 1
Excerpt: 20 subjects wore a test formulation without peptide or with 0.005% PKEK over a period of 8 weeks on one forearm in each case. Prior to the start of the study, and also after 8 weeks, a Mexameter probe (Courage & Khazaka, Cologne) was used to measure the melanin concentration both on the inside and also on the outside of the forearm. The measurement of the melanin concentration in the skin is based on the principle of absorption/reflection. The Mexameter probe emits light of a specific wavelength which is in agreement with the absorption maxima of the melanin in the skin. The light reflected by the skin is measured and placed relative to the emitted amount of light. The resulting measurement values are given as index numbers. [table]

[2] = test system: evenness of the skin appearance of dark-skinned women (Fitzpatrick type VI-V); assay: Improvement in the skin appearance in dark-skinned people, visual assessment of evenness by an expert; type: in vivo, human; settings: 0.004% PKEK face cream twice daily, FIG. 5
Procedure: For the following study, dark-skinned women (Fitzpatrick type VI-V) were used. The Fitzpatrick scale serves to organize the different skin types:
In each case, 25 female subjects were given a face cream which comprised either the tetrapeptide PKEK or no active ingredient (vehicle). They had to apply this formulation twice daily over the entire face for a period of 12 weeks. Prior to the start of the study and also after 2, 4, 8 and 12 weeks, the evenness of the skin appearance was assessed visually by an expert.
A five-part scale was used for assessing the skin appearance:
5=no contrast, very even skin appearance 4=slight contrast, slightly irregular skin appearance 3=moderate contrast, irregular skin appearance 2=high contrast, highly irregular skin appearance 1=very high contrast, very highly irregular skin appearance

Compound | ΔΔITA after 6-week application of the test formulations (reduction of age spots) (age spots on the face) | difference in the melanin values after 8 weeks compared to the starting value (decrease in skin brownness) ([1]; inside of the forearm) | difference in the melanin values after 8 weeks compared to the starting value (decrease in skin brownness) ([1]; outside of the forearm) | reduction of age spots, PKEK compared with sodium ascorbyl phosphate (age spots on the face; comparison of the single actives) | improvement in the evenness of the skin appearance (five-part visual scale) ([2]; after 12 weeks, vehicle shows no further improvement) | improvement in the evenness of the skin appearance compared with the vehicle ([2]; within the first 8 weeks, over the course of the time) | improvement in the evenness of the skin appearance (five-part visual scale) ([2]; within the first 8 weeks)
O=C1O[C@H]([C@@H](O)CO)C([O-])=C1OP(=O)([O-])[O-].[Na+].[Na+].[Na+] [sodium ascorbyl phosphate, reference compound] | visible reduction of the age spots |  |  |  |  |  | 
Pro Lys Glu Lys (PKEK) | visible reduction of the age spots | significantly greater decrease in skin brownness | significantly greater decrease in skin brownness | greater reduction than sodium ascorbyl phosphate | significantly improves the skin appearance yet further | increasingly greater over the course of the time than with the vehicle | visibly improved
